From patent US9096624B2 (OSI Pharmaceuticals, LLC, priority 2009, dated 2015)

Columns and labels:
FAK [1] = molecular target: T1, FAK (Homo sapiens, UniProt Q05397); assay: Cell-based capture ELISA for inhibition of FAK autophosphorylation [pY397] in MiaPaCa2 cells
Description: Cell-Based Assays for Inhibition of FAK Autophosphorylation: MiaPaCa2 and U87MG
ELISA kit from Invitrogen (KHO0441).
Reagents Provided in Biosource FAK [pY397]
The cells were then suspended in cell assay medium.

FAK [2] = molecular target: T1, FAK; assay: biochemical
[3] = MIA-PaCa2 cells on fibronectin, 2 h, no plasma, read-out: Mean FAK Cell Mechanistic IC50 MIA-PaCa2
[4] = MIA-PaCa2 cells, + 50% human plasma, read-out: Mean FAK Cell Mechanistic IC50 + 50% hP MIA-PaCa2
[5] = MIA-PaCa2 cells, + 50% mouse plasma (Table 2), read-out: Mean FAK Cell Mechanistic IC50 + 50% mP MIA-PaCa2
[6] = MIA-PaCa2 cells, + 50% mouse plasma (Table 3), read-out: Mean FAK Cell Mechanistic IC50 + 50% mP MIA-PaCa2

T1 sequence (Q05397 whole entry): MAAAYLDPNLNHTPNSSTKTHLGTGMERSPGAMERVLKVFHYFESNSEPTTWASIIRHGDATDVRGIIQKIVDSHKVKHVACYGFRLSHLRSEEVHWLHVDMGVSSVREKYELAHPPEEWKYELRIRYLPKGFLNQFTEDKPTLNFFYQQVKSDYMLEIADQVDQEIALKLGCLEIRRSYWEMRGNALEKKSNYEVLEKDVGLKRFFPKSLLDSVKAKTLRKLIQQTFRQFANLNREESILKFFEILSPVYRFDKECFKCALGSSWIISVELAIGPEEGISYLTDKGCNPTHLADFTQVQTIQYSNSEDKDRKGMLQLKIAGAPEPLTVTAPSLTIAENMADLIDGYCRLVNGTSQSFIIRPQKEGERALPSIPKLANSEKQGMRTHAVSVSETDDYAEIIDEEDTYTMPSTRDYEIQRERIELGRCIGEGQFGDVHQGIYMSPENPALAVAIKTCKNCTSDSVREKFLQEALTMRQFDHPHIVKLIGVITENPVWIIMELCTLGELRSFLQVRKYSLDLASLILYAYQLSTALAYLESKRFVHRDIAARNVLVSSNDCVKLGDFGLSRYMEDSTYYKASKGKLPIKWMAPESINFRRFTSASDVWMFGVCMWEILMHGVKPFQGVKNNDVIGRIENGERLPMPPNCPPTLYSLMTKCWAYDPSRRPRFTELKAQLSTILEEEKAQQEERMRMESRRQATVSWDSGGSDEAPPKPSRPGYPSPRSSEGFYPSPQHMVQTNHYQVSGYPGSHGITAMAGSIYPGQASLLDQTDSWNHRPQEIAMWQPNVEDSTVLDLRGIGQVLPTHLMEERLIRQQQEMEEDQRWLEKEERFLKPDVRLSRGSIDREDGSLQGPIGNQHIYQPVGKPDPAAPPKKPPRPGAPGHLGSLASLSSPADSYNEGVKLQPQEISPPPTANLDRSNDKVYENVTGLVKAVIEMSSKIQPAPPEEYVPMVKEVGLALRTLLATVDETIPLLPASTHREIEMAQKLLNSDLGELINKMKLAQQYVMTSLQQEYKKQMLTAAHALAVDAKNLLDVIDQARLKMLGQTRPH

Row | IC50 (FAK [1]; [5]) [µM] | IC50 (FAK [1]; [6]) [µM] | Compound | IC50 (FAK [1]; [3]) [µM] | IC50 (FAK [1]; [4]) [µM] | IC50 (FAK [2]) [µM]
1 | < 1 | – | CCP(=O)(CC)Cc1cccc(Nc2ncc(C(F)(F)F)c(NCc3cccnc3N(C)S(C)(=O)=O)n2)c1 [Example 11, N-[3-({[2-({3-[(Diethylphosphoryl)methyl]phenyl}amino)-5-(trifluoromethyl)pyrimidin-4-yl]amino}methyl)pyridin-2-yl]-N-methylmethanesulfonamide] | < 1 | < 1 | < 1
2 | – | – | CCOP(=O)(O)c1ccc(Nc2ncc(C(F)(F)F)c(NCc3cccnc3N(C)S(C)(=O)=O)n2)cc1 [Example 40, Ethyl hydrogen [4-({4[({2-[methyl(methylsulfonyl)amino]pyridin-3-yl}methyl)amino]-5-(trifluoromethyl)pyrimidin-2-yl}amino)phenyl]phosphonate] | 1 to 10 | 1 to 10 | < 1
3 | < 1 | – | CNC(=O)c1ccccc1Nc1nc(Nc2ccc(CP(C)(C)=O)cc2)ncc1C(F)(F)F [Example 16, 2-{[2-({4-[(Dimethylphosphoryl)methyl]phenyl}amino)-5-(trifluoromethyl)pyrimidin-4-yl]amino}-N-methylbenzamide] | < 1 | < 1 | < 1
4 | – | – | CCOP(C)(=O)Cc1ccc(Nc2ncc(C(F)(F)F)c(Nc3ccc(N4CCC(O)C4)c4c3C(=O)N(C)C4)n2)cc1 (stereo not shown) [Example 81, Ethyl (4-{[4-{[7-(3-hydroxypyrrolidin-1-yl)-2-methyl-3-oxo-2,3-dihydro-1H-isoindol-4-yl]amino}-5-(trifluoromethyl)pyrimidin-2-yl]amino}benzyl)methylphosphinate] | < 1 | < 1 | < 1
5 | – | < 1 | CNC(=O)c1ccccc1Nc1nc(Nc2ccc(CP(=O)(OCCOC)OCCOC)cc2OC)ncc1C(F)(F)F [Example 221, Bis(2-methoxyethyl) (3-methoxy-4-{[4-{[2-(methylcarbamoyl)phenyl]amino}-5-(trifluoromethyl)pyrimidin-2-yl]amino}benzyl)phosphonate] | – | – | < 1
6 | – | – | CCOP(=O)(OCC)C(C)(C)c1ccc(Nc2ncc(C(F)(F)F)c(Nc3ccccc3C(=O)NC)n2)cc1 [Example 21, Diethyl [2-(4-{[4-{[2-(methylcarbamoyl)phenyl]amino}-5-(trifluoromethyl)pyrimidin-2-yl]amino}phenyl)propan-2-yl]phosphonate] | < 1 | < 1 | < 1
7 | – | < 1 | COCCOP(=O)(Cc1ccc(Nc2ncc(C(F)(F)F)c(Nc3cccc4c3C(=O)N(C)C4)n2)c(OC)c1)OCCOC [Example 219, Bis(2-methoxyethyl) [3-methoxy-4-({4-[(2-methyl-3-oxo-2,3-dihydro-1H-isoindol-4-yl)amino]-5-(trifluoromethyl)pyrimidin-2-yl}amino)benzyl]phosphonate] | – | – | < 1

Row | Compound | IC50 (FAK [1]; [5]) [µM] | IC50 (FAK [1]; [6]) [µM] | IC50 (FAK [1]; [3]) [µM] | IC50 (FAK [1]; [4]) [µM] | IC50 (FAK [2]) [µM]
8 | CCOP(=O)(Cc1ccc(Nc2ncc(C(F)(F)F)c(Nc3ccc(CN4CCCC4)c4c3C(=O)N(C)C4)n2)cc1)OCC [Example 109, Diethyl (4-{[4-{[2-methyl-3-oxo-7-(pyrrolidin-1-ylmethyl)-2,3-dihydro-1H-isoindol-4-yl]amino}-5-(trifluoromethyl)pyrimidin-2-yl]amino}benzyl)phosphonate] | – | 1 to 10 | – | – | < 1
9 | CCOP(=O)(Cc1ccc(Nc2ncc(C(F)(F)F)c(Nc3ccc(-c4cnn(CC(C)(C)O)c4)c4c3C(=O)N(C)C4)n2)c(OC)c1)OCC [Example 72, Diethyl (4-{[4-({7-[1-(2-hydroxy-2-methylpropyl)-1H-pyrazol-4-yl]-2-methyl-3-oxo-2,3-dihydro-1H-isoindol-4-yl}amino)-5-(trifluoromethyl)pyrimidin-2-yl]amino}-3-methoxybenzyl)phosphonate] | < 1 | – | – | – | < 1
